Source: publication PMC7350407, “Kinetic Modifications of C4 PEPC Are Qualitatively Convergent, but Larger in Panicum Than in Flaveria” (Frontiers in Plant Science, 2020)
Like-named read-outs stand apart in the source and are kept apart here. Blank lines part the entries; values can stand above or below the molecule they belong to.

Columns and labels:
[1] = target: T1, Flaveria pringlei (C3) PEPC (Flaveria pringlei, UniProt Q01647); assay: malate dehydrogenase-coupled NADH assay, secondary plot of kcat/Km(HCO3-) against PEP; assay type: biochemical; conditions: substrate constant at limiting bicarbonate, not inhibition; pH 8.0, 25 °C, 10 mM MgCl2
T1 construct: gene PPCA1; full-length, 967 codons, N-terminal His6 tag kept (pET-1B His6 TEV LIC), E. coli BL21(DE3)
Description: malate dehydrogenase-coupled NADH assay, secondary plot of kcat/Km(HCO3-) against PEP on Flaveria pringlei (C3) PEPC

[2] = test system: T2, Panicum queenslandicum (C4) PEPC; assay: malate dehydrogenase-coupled NADH assay, […] nm, secondary plot; assay type: biochemical; conditions: co-substrate bicarbonate; pH 8.0, 25 °C, 10 mM MgCl2; read-out: KmPEP
T2 construct: gene ppc-1P3; full-length, 962 codons, N-terminal His6 tag kept, E. coli BL21(DE3), cloned from leaf cDNA

[3] = target: T3, Flaveria trinervia (C4) PEPC (Flaveria trinervia, UniProt P30694); assay: malate dehydrogenase-coupled NADH assay, secondary plot of kcat/Km(HCO3-) against PEP; assay type: biochemical; conditions: substrate constant at limiting bicarbonate, not inhibition; pH 8.0, 25 °C, 10 mM MgCl2
T3 construct: gene PPCA; full-length, 967 codons, N-terminal His6 tag kept (pET-1B His6 TEV LIC), E. coli BL21(DE3)
Description: malate dehydrogenase-coupled NADH assay, secondary plot of kcat/Km(HCO3-) against PEP on Flaveria trinervia (C4) PEPC

[4] = target: T4, Panicum pygmaeum (C3) PEPC; assay: as above; assay type: biochemical; conditions: substrate constant at limiting bicarbonate, not inhibition; pH 8.0, 25 °C, 10 mM MgCl2
T4 construct: gene ppc-1P3; full-length, 969 codons, codon-optimised synthetic gene, N-terminal His6 tag kept, E. coli BL21(DE3)
Description: malate dehydrogenase-coupled NADH assay, secondary plot of kcat/Km(HCO3-) against PEP on Panicum pygmaeum (C3) PEPC

[5] = target: T2, Panicum queenslandicum (C4) PEPC; assay: as above; assay type: biochemical; conditions: substrate constant at limiting bicarbonate, not inhibition; pH 8.0, 25 °C, 10 mM MgCl2
Description: malate dehydrogenase-coupled NADH assay, secondary plot of kcat/Km(HCO3-) against PEP on Panicum queenslandicum (C4) PEPC

[6] = test system: T4, Panicum pygmaeum (C3) PEPC; assay: malate dehydrogenase-coupled NADH assay, […] nm, secondary plot; assay type: biochemical; conditions: co-substrate bicarbonate; pH 8.0, 25 °C, 10 mM MgCl2; read-out: KmPEP
[7] = target: T2, Panicum queenslandicum (C4) PEPC; assay: malate dehydrogenase-coupled NADH assay, […] nm; assay type: biochemical; conditions: pH 8.0, 25 °C, 10 mM MgCl2, 5 mM KHCO3, PEP varied
[8] = target: T4, Panicum pygmaeum (C3) PEPC; assay: malate dehydrogenase-coupled NADH assay, […] nm; assay type: biochemical; conditions: pH 8.0, 25 °C, 10 mM MgCl2, 5 mM KHCO3, PEP varied
[9] = target: T3, Flaveria trinervia (C4) PEPC; assay: malate dehydrogenase-coupled NADH assay, […] nm; assay type: biochemical
[10] = target: T1, Flaveria pringlei (C3) PEPC; assay: malate dehydrogenase-coupled NADH assay, […] nm; assay type: biochemical
[11] = test system: T5, Panicum queenslandicum (C4) PEPC; conditions: read-out: KmHCO3-; co-substrate PEP; pH 8.0, 25 °C, 10 mM MgCl2
T5 construct: gene ppc-1P3

[12] = test system: T6, Panicum pygmaeum (C3) PEPC; conditions: read-out: KmHCO3-; co-substrate PEP; pH 8.0, 25 °C, 10 mM MgCl2
T6 construct: gene ppc-1P3

[13] = substrate: C=C(OP(=O)(O)O)C(=O)O; assay: purified protein; assay type: biochemical, Flaveria trinervia; conditions: co-substrate bicarbonate, pH 8.0, 25 °C, 10 mM MgCl2
[14] = substrate: O=C(O)O; assay: purified protein; conditions: co-substrate PEP, pH 8.0, 25 °C, 10 mM MgCl2
[15] = substrate: C=C(OP(=O)(O)O)C(=O)O; assay: purified protein; assay type: biochemical, Flaveria pringlei; conditions: co-substrate bicarbonate, pH 8.0, 25 °C, 10 mM MgCl2
[16] = mixed inhibitor, competitive constant (limiting PEP), read-out: KicMalate
[17] = competitive, read-out: KicAspartate

Ki [7, 16]: 7.51 ± 1.17 mM
Ki [8, 16]: 0.52 ± 0.22 mM
Ki ([9]; read-out: KicMalate): 11 ± 1.55 mM
Ki ([10]; read-out: KicMalate): 2.14 ± 0.62 mM
Molecule: O=C(O)C[C@H](O)C(=O)O [malate]

Ki [7, 17]: 49.4 ± 7.86 mM
Ki [8, 17]: 2.27 ± 0.02 mM
Ki ([9]; read-out: KicAspartate): 40 ± 6.49 mM
Ki ([10]; read-out: KicAspartate): 4.13 ± 0.6 mM
Molecule: N[C@@H](CC(=O)O)C(=O)O [aspartate]

Km [11]: 40 ± 20 µM
Km [12]: 120 ± 20 µM
Molecule: O=C(O)O [bicarbonate]

The remaining lines, values behind:

Molecule: C=C(OP(=O)(O)O)C(=O)O [PEP]
KiPEP [1]: 0.02 ± 0.01 mM
Km [2]: 4170 ± 300 µM
KiPEP [3]: 0.40 ± 0.13 mM
KiPEP [4]: 0.05 ± 0.01 mM
KiPEP [5]: 4.39 ± 1.10 mM
Km [6]: 170 ± 50 µM

B1: Flaveria trinervia (C4) PEPC (Flaveria trinervia) (protein)
chain: MANRNVEKLASIDAQLRLLVPGKVSEDDKLVEYDALLLDKFLDILQDLHGEDLKEAVQQCYELSAEYEGKHDPKKLEELGSLLTSLDTGDSIVIAKAFSHMLNLANLAEELQIAYRRRIKLKSGDFADEANATTESDIEETFKRLVHKLNKSPEEVFDALKNQTVELVLTAHPTQSVRRSLLQKHGRIRNCLAQLYAKDITPDDKQELDEALHREIQAAFRTDEIRRTPPTPQDEMRAGMSYFHETIWKGVPKFLRRVDTALKNIGINERFPYNAPLIQFSSWMGGDRDGNPRVTPEVTRDVCLLARMMTSNMYFSQIEDLMIEMSMWRCNSELRVRAEELYRTARKDVKHYIEFWKRIPPNQPYRVILGDVRDKLYNTRERSRHLLVDGKSDIPDEAVYTNVEQLLEPLELCYRSLCDCGDHVIADGSLLDFLRQVSTFGLSLVKLDIRQESDRHTEVLDAITQHLGIGSYREWSEEKRQEWLLAELSGKRPLIGPDLPKTEEVKDCLDTFKVLAELPSDCFGAYIISMATSTSDVLAVELLQREYHIKHPLRVVPLFEKLADLEAAPAAMTRLFSMDWYRNRIDGKQEVMIGYSDSGKDAGRFSAAWQLYKTQEQIVKIAKEFGVKLVIFHGRGGTVGRGGGPTHLALLSQPPDTINGSLRVTVQGEVIEQSFGEEHLCFRTLQRFCAATLEHGMNPPISPRPEWRELMDQMAVVATEEYRSVVFKEPRFVEYFRLATPELEFGRMNIGSRPSKRKPSGGIESLRAIPWIFSWTQTRFHLPVWLGFGAAFKHAIQKDSKNLQMLQEMYKTWPFFRVTIDLVEMVFAKGNPGIAALNDKLLVSEDLRPFGESLRANYEETKNYLLKIAGHKDLLEGDPYLKQGIRLRDPYITTLNVCQAYTLKRIRDPNYHVTLRPHISKEYAAEPSKPADELIHLNPTSEYAPGLEDTLILTMKGIAAGMQNTG
notes: full-length, 967 codons, N-terminal His6 tag kept (pET-1B His6 TEV LIC), E. coli BL21(DE3)
Km [13]: 600 ± 50 µM
kcat [13]: 47.99 ± 1.21 s⁻¹
kcat/Km [13]: 80000 ± 5400 M⁻¹ s⁻¹
Km [14]: 70 ± 10 µM
kcat [14]: 47.99 ± 1.21 s⁻¹
kcat/Km [14]: 690000 M⁻¹ s⁻¹

B2: Flaveria pringlei (C3) PEPC (Flaveria pringlei) (protein)
chain: MANRNLEKLASIDAQLRLLVPGKVSEDDKLIEYDALLLDKFLDILQDLHGEDLKEAVQECYELSAEYEGKHDPKKLEELGSVLTSLDPGDSIVIAKAFSHMLNLANLAEEVQIAYRRRIKLKRGDFADEANATTESDIEETFKKLVLKLNKSPEEVFDALKNQTVDLVLTAHPTQSVRRSLLQKHGRIRNCLAQLYAKDITPDDKQELDEALHREIQAAFRTDEIRRTPPTPQDEMRAGMSYFHETIWKGVPKFLRRVDTALKNIGINERVPYNAPLIQFSSWMGGDRDGKHPRVTPEVTRDVCLLARMMASNMYFSQIEDLMFEMSMWRCNSELRVRAEELYRTARRDVKHYIEFWKQVPPTEPYRVILGDVRDKLYNTRERSRHLLAHGISDIPEEAVYTNVEQFLEPLELCYRSLCDCGDRVIADGSLLDFLRQVSTFGLSLVKLDIRQESDRHTDVLDAITQHLEIGSYREWSEEKRQEWLLAELSGKRPLFGSDLPKTEEVKDVLDTFNVLAELPSDCFGAYIISMATSPSDVLAVELLQRECHVKHPLRVVPLFEKLADLEAAPAAMARLFSIDWYRNRIDGKQEVMIGYSDSGKDAGRFSAAWQLYKAQEEIIKVAKEFGVKLVIFHGRGGTVGRGGGPTHLAILSQPPDTIHGSLRVTVQGEVIEQSFGEEHLCFRTLQRFCAATLEHGMNPPISPRPEWRELMDQMAVVATEEYRSIVFKEPRFVEYFRLATPELEYGRMNIGSRPSKRKPSGGIESLRAIPWIFAWTQTRFHLPVWLGFGAAFKHAIKKDSKNLQMLQEMYKTWPFFRVTIDLVEMVFAKGDPGIAALNDKLLVSEDLWPFGESLRANYEETKDYLLKIAGHRDLLEGDPYLKQRIRLRDSYITTLNVCQAYTLKRIRDPNYHVTLRPHISKEYAAEPSKPADELIHLNPTSEYAPGLEDTLILTMKGIAAGMQNTG
notes: as for B1
Km [15]: 60 ± 10 µM
kcat [15]: 52.65 ± 1.37 s⁻¹
kcat/Km [15]: 940000 ± 84900 M⁻¹ s⁻¹
Km [14]: 100 ± 10 µM
kcat [14]: 52.65 ± 1.37 s⁻¹
kcat/Km [14]: 440000 M⁻¹ s⁻¹
